These molecules were tested against T1, viral kinase pUL-97 (Human cytomegalovirus, UniProt P16788) (assay: UL97 kinase assay on Immobilon plate). Settings: inhibition of UL 97 kinase activity; class by IC50 / % inhibition at 10 μM or 100 μM; read-out: Activity Class [A, B, C].
T1 construct: The pUL-97 gene was cloned into a baculovirus vector; GST (glutathione S-transferase) (N); made in house; host or cells: Sf9 insect cells, baculovirus
Format: biochemical
Description: UL97 Kinase-Assay on Immobilon Plate
The effect of pyrazine derivatives of this invention was tested on the activity of the viral kinase pUL-97. This kinase is derived from human cytomegalovirus (HCMV) (M. Marschall et al., Journal of General Virology, 2001, 82, 1439-1450). The pUL-97 gene was cloned into a baculovirus vector in order to produce GST (glutathione S-transferase) fusion protein. Insect cells (Sf9) were infected and GST-UL-97 purified via glutathione affinity columns according to standard procedures.
The pUL-97 kinase reaction was performed as described (M. Marschall et al., Journal of General Virology, 2001, 82, 1439-1450). Briefly, 10 μl Assay buffer (3 μM ATP, 60 μg/ml myelin basic protein (MBP) as substrate), 1.0 μCi γ-[^33P]ATP and 10 μl Basic buffer (20 mM Tris-HCl pH7.5, 0.5 mM MnCl2, 1 mM DTT (Dithiothreitol)) were given to the test tube before adding various concentrations of pyrazine derivatives. The reaction was started by adding 0.2 μl pUL-97 kinase, purified from infected Sf9-insect cells as described above. The total volume was adjusted with Basic buffer to a final volume of 30 μl. The reaction mix was incubated for 1 hr at 30° C. For negative control, 10 μl 0.1M EDTA (Ethylene Diamine tetraacetate) was added to reaction mix before addition of pUL-97 protein kinase. The reaction was stopped by addition of 10 μl 0.1 M EDTA.
Measuring Incorporation of Radioactivity:
The Immobilon plate (Millipore) was rinsed with 50 μl methanol/well. Following addition of 100 μl 0.1 M EDTA, 20 μl of each kinase reaction mix was added to one well of the Immobilon plate. Each well was washed 4× with 250 μl 0.75% phosphoric acid and 1× with 50 μl methanol. After addition of 50 μl scintillation cocktail (Roth, Germany) per well incorporation of radioactivity was measured using a Betareader (Wallac) and enzymatic activity calculated.

T1 sequence (P16788 whole entry): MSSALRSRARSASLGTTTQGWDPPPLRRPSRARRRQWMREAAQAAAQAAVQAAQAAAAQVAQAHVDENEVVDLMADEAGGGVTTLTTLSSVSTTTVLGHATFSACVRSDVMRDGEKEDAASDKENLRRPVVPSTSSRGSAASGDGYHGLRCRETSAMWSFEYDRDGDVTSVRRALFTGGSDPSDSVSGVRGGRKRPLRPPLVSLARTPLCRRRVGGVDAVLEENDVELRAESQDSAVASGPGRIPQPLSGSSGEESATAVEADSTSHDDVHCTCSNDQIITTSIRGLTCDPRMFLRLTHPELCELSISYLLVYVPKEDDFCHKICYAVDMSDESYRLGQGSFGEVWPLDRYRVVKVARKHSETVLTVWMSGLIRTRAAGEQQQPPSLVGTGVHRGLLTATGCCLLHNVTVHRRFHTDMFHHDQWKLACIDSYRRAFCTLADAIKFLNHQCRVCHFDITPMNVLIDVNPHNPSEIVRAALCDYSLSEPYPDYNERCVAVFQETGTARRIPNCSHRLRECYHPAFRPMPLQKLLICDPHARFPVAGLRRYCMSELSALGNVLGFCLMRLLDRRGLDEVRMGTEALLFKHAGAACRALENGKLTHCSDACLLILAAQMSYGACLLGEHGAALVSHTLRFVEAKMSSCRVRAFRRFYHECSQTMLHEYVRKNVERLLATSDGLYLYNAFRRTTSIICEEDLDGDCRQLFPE

SMILES	IC50 [µM]
CC(=O)c1ccc(-c2cncc(N3CCN(c4cccc(C)c4C)CC3)n2)cc1 [compound 298, 1-{4-[4-(2,3-Dimethyl-phenyl)-3,4,5,6-tetrahydro-2H-[1,2′]bipyrazinyl-6′-yl]-phenyl}-ethanone]	10 to 100
COc1ccccc1N1CCN(c2cncc(-c3ccc(F)c(Cl)c3)n2)CC1 [compound 242, 6′-(3-Chloro-4-fluoro-phenyl)-4-(2-methoxy-phenyl)-3,4,5,6-tetrahydro-2H-[1,2′]bipyrazinyl]	10 to 100
Cc1nc(C)c(N2CCN(c3ccncc3)CC2)nc1-c1cc2ccccc2s1 [compound 373, 6′-Benzo[b]thiophen-2-yl-3′,5′-dimethyl-4-pyridin-4-yl-3,4,5,6-tetrahydro-2H-[1,2′]bipyrazinyl]	10 to 100
CSc1ccc(-c2cncc(N3CCC(c4ccccc4)CC3)n2)cc1 [compound 361, 2-(4-Methylsulfanyl-phenyl)-6-(4-phenyl-piperidin-1-yl)-pyrazine]	1 to 10
OCc1ccc(-c2cncc(N3CCN(c4ccc(F)cc4F)CC3)n2)cc1 [compound 200, {4-[4-(2,4-Difluoro-phenyl)-3,4,5,6-tetrahydro-2H-[1,2′]bipyrazinyl-6′-yl]-phenyl}-methanol]	10 to 100
COc1ccc(N2CCN(c3cncc(-c4ccc(C(N)=O)cc4)n3)CC2)cc1 [compound 290, 4-[4-(4-Methoxy-phenyl)-3,4,5,6-tetrahydro-2H-[1,2′]bipyrazinyl-6′-yl]-benzamide]	< 1
CC(=O)c1ccc(N2CCN(c3cncc(-c4ccc(F)cc4)n3)CC2)cc1 [compound 276, 1-{4-[6′-(4-Fluoro-phenyl)-2,3,5,6-tetrahydro-[1,2′]bipyrazinyl-4-yl]-phenyl}-ethanone]	1 to 10
COc1ccc(N2CCN(c3cncc(-c4ccccc4)n3)CC2)cc1 [compound 291, 4-(4-Methoxy-phenyl)-6′-phenyl-3,4,5,6-tetrahydro-2H-[1,2′]bipyrazinyl]	10 to 100
COc1ccc(-c2cncc(N3CCN(c4ccccn4)CC3)n2)cc1OC [compound 306, 6′-(3,4-Dimethoxy-phenyl)-4-pyridin-2-yl-3,4,5,6-tetrahydro-2H-[1,2′]bipyrazinyl]	1 to 10
CSc1ccc(-c2cncc(N3CCN(c4cccc(C)c4)C(C)C3)n2)cc1 (stereo not drawn) [compound 301, 3-Methyl-6′-(4-methylsulfanyl-phenyl)-4-m-tolyl-3,4,5,6-tetrahydro-2H-[1,2′]bipyrazinyl]	10 to 100
CC(=O)c1cccc(-c2cncc(N3CCN(c4ccc(F)cc4F)CC3)n2)c1 [compound 273, 1-{3-[4-(2,4-Difluoro-phenyl)-3,4,5,6-tetrahydro-2H-[1,2′]bipyrazinyl-6′-yl]-phenyl}-ethanone]	10 to 100
Cc1ccc(-c2cncc(N3CCN(c4ccccn4)CC3)n2)cc1 [compound 328, 4-Pyridin-2-yl-6′-p-tolyl-3,4,5,6-tetrahydro-2H-[1,2′]bipyrazinyl]	1 to 10
CN(C)c1ccc(-c2cncc(N3CCC(c4ccccc4)CC3)n2)cc1 [compound 280, Dimethyl-{4-[6-(4-phenyl-piperidin-1-yl)-pyrazin-2-yl]-phenyl}-amine]	1 to 10
CC(C)(C)c1ccc(-c2cncc(N3CCN(c4ccncc4)CC3)n2)cc1 [compound 257, 6′-(4-tert-Butyl-phenyl)-4-pyridin-4-yl-3,4,5,6-tetrahydro-2H-[1,2′]bipyrazinyl]	1 to 10
FC(F)(F)c1cccc(N2CCN(c3cncc(-c4ccc5ccccc5c4)n3)CC2)c1 [compound 252, 6′-Naphthalen-2-yl-4-(3-trifluoromethyl-phenyl)-3,4,5,6-tetrahydro-2H-[1,2′]bipyrazinyl]	10 to 100
CC(=O)c1ccc(-c2cncc(N3CCN(c4ccc(F)cc4F)CC3)n2)cc1 [compound 275, 1-{4-[4-(2,4-Difluoro-phenyl)-3,4,5,6-tetrahydro-2H-[1,2′]bipyrazinyl-6′-yl]-phenyl}-ethanone]	1 to 10
c1ccc(C2CCN(c3cncc(-c4ccoc4)n3)CC2)cc1 [compound 277, 2-Furan-3-yl-6-(4-phenyl-piperidin-1-yl)-pyrazine]	10 to 100
CCOc1ccc(-c2cncc(N3CCN(c4ccncc4)CC3)n2)cc1 [compound 260, 6′-(4-Ethoxy-phenyl)-4-pyridin-4-yl-3,4,5,6-tetrahydro-2H-[1,2′]bipyrazinyl]	1 to 10

Same assay, conditions: inhibition of UL 97 kinase activity; class by IC50 / % inhibition at 10 or 100 μM; read-out: Activity Class [A, B, C]

SMILES	IC50 [µM]
CSc1ccccc1-c1cncc(N2CCN(c3ccncc3)CC2)n1 [compound 166, 6′-(2-Methylsulfanyl-phenyl)-4-pyridin-4-yl-3,4,5,6-tetrahydro-2H-[1,2′]bipyrazinyl]	10 to 100
CC(=O)c1ccccc1-c1cncc(N2CCN(c3ccc(F)cc3F)CC2)n1 [compound 141, 1-{2-[4-(2,4-Difluoro-phenyl)-3,4,5,6-tetrahydro-2H-[1,2′]bipyrazinyl-6′-yl]-phenyl}-ethanone]	1 to 10
OCc1ccc(-c2cncc(N3CCN(c4ccccc4)CC3)n2)cc1 [compound 117, [4-(4-Phenyl-3,4,5,6-tetrahydro-2H-[1,2′]bipyrazinyl-6′-yl)-phenyl]-methanol]	1 to 10
CC(=O)c1cccc(-c2cncc(N3CCN(c4cccc(C(F)(F)F)c4)CC3)n2)c1 [compound 162, 1-{3-[4-(3-Trifluoromethyl-phenyl)-3,4,5,6-tetrahydro-2H-[1,2′]bipyrazinyl-6′-yl]-phenyl}-ethanone]	10 to 100
CSc1ccc(-c2cncc(N3CCN(c4ccc(C)cc4)CC3)n2)cc1 [compound 137, 6′-(4-Methylsulfanyl-phenyl)-4-p-tolyl-3,4,5,6-tetrahydro-2H-[1,2′]bipyrazinyl]	1 to 10
Fc1ccccc1N1CCN(c2cncc(-c3ccc4ccccc4c3)n2)CC1 [compound 123, 4-(2-Fluoro-phenyl)-6′-naphthalen-2-yl-3,4,5,6-tetrahydro-2H-[1,2′]bipyrazinyl]	1 to 10
Fc1ccc(-c2cncc(N3CCN(c4ccncc4)CC3)n2)c(F)c1 [compound 46, 6′-(2,4-Difluoro-phenyl)-4-pyridin-4-yl-3,4,5,6-tetrahydro-2H-[1,2′]bipyrazinyl]	1 to 10
O=C(NCCO)c1cccc(-c2cncc(N3CCN(c4ccncc4)CC3)n2)c1 [compound 39, N-(2-Hydroxy-ethyl)-3-(4-pyridin-4-yl-3,4,5,6-tetrahydro-2H-[1,2′]bipyrazinyl-6′-yl)-benzamide]	10 to 100
COc1ccc(Cl)cc1-c1cncc(N2CCN(c3ccccc3)CC2)n1 [compound 119, 6′-(5-Chloro-2-methoxy-phenyl)-4-phenyl-3,4,5,6-tetrahydro-2H-[1,2′]bipyrazinyl]	10 to 100
Fc1ccc(N2CCN(c3cncc(-c4cccc(F)c4)n3)CC2)cc1 [compound 181, 4-(4-Fluoro-phenyl)-6′-(3-fluoro-phenyl)-3,4,5,6-tetrahydro-2H-[1,2′]bipyrazinyl]	10 to 100
NC(=O)c1ccc(-c2cncc(N3CCN(c4cccc(Cl)c4)CC3)n2)cc1 [compound 89, 4-[4-(3-Chloro-phenyl)-3,4,5,6-tetrahydro-2H-[1,2′]bipyrazinyl-6′-yl]-benzamide]	1 to 10
NC(=O)c1ccc(-c2cncc(NCCc3c[nH]c4ccccc34)n2)cc1 [compound 35, 4-{6-[2-(1H-Indol-3-yl)-ethylamino]-pyrazin-2-yl}-benzamide]	< 1
Fc1ccc(-c2cncc(N3CCN(c4ccc(F)cc4)CC3)n2)cc1 [compound 138, 4,6′-Bis-(4-fluoro-phenyl)-3,4,5,6-tetrahydro-2H-[1,2′]bipyrazinyl]	10 to 100
COc1ccccc1N1CCN(c2cncc(-c3ccc(F)cc3)n2)CC1 [compound 106, 6′-(4-Fluoro-phenyl)-4-(2-methoxy-phenyl)-3,4,5,6-tetrahydro-2H-[1,2′]bipyrazinyl]	1 to 10
Cc1ccccc1-c1cncc(N2CCN(c3cccc(Cl)c3)CC2)n1 [compound 82, 4-(3-Chloro-phenyl)-6′-o-tolyl-3,4,5,6-tetrahydro-2H-[1,2′]bipyrazinyl]	10 to 100
Fc1cccc(-c2cncc(N3CCN(c4ccccc4)CC3)n2)c1 [compound 194, 6′-(3-Fluoro-phenyl)-4-phenyl-3,4,5,6-tetrahydro-2H-[1,2′]bipyrazinyl]	10 to 100
COc1ccc(N2CCN(c3cncc(-c4ccccc4Oc4ccccc4)n3)CC2)cc1OC [compound 174, 4-(3,4-Dimethoxy-phenyl)-6′-(2-phenoxy-phenyl)-3,4,5,6-tetrahydro-2H-[1,2′]bipyrazinyl]	10 to 100
CCOc1ccc(-c2cncc(N3CCN(c4ccccc4)CC3)n2)cc1 [compound 121, 6′-(4-Ethoxy-phenyl)-4-phenyl-3,4,5,6-tetrahydro-2H-[1,2′]bipyrazinyl]	1 to 10

From US20080194574A1, “Pyrazine Derivatives As Effective Compounds Against Infectious Diseases” (AXXIMA PHARMACEUTICALS AG, priority 2003, published 2008)
